Test results as given in US10738028B2, “Spiro three-membered ring, spiro five-membered ring peptide deformylase inhibitor and use thereof in antibacteria and anti-tumor” (priority 2016, dated 2020).

What was measured:
Format in all cases: cell-based
[1] = system: HCT-116 colorectal cancer cell line; assay: CCK-8 proliferation inhibition; settings: Homo sapiens, HCT-116, 72 h, concentration of 30 μM; 72 hours; CCK-8; read-out: HCT116 inhibition rate/%
Procedure, shortened: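 Cells were plated overnight at 2000 cells/well, then compound in culture medium was added at a range of final concentrations. After 72 hours in a CO2 incubator, medium was replaced with 1:10 CCK-8 solution for the read-out.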

[2] = system: methicillin-sensitive Staphylococcus epidermidis (MSSE); assay: MIC, two-fold agar dilution (CLSI), clinical isolates; settings: for Anti-bacterial activity (MIC), strain MSSE 15-3: clinical isolate MSSE 15-3; for Anti-bacterial activity (MIC), strain MSSE 15-4: clinical isolate MSSE 15-4; for Anti-bacterial activity (MIC), strain MSSE 15-5: clinical isolate MSSE 15-5; for Anti-bacterial activity (MIC), strain MSSE 15-6: clinical isolate MSSE 15-6
Procedure, shortened: (§1)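 Samples are serially diluted two-fold in agar following CLSI guidance. Plates are then inoculated with the tested strains. The lowest inhibiting concentration is recorded as MIC.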

[3] = system: methicillin-resistant Staphylococcus aureus (MRSA); assay: as above; settings: for Anti-bacterial activity (MIC), strain MRSA 15-1: clinical isolate MRSA 15-1; for Anti-bacterial activity (MIC), strain MRSA 15-2: clinical isolate MRSA 15-2; for Anti-bacterial activity (MIC), strain MRSA 15-3: clinical isolate MRSA 15-3; for Anti-bacterial activity (MIC), strain MRSA 15-4: clinical isolate MRSA 15-4
Procedure, shortened: as §1

[4] = system: methicillin-sensitive Staphylococcus aureus (MSSA); assay: as above; settings: for Anti-bacterial activity (MIC), strain MSSA 15-3: clinical isolate MSSA 15-3; for Anti-bacterial activity (MIC), strain MSSA 15-4: clinical isolate MSSA 15-4; for Anti-bacterial activity (MIC), strain MSSA 15-5: clinical isolate MSSA 15-5; for Anti-bacterial activity (MIC), strain MSSA 15-6: clinical isolate MSSA 15-6
Procedure, shortened: as §1

[5] = system: Streptococcus pneoumoniae (SPN); assay: as above; settings: for Anti-bacterial activity (MIC), strain SPN 16-2: clinical isolate SPN 16-2; for Anti-bacterial activity (MIC), strain SPN 16-4: clinical isolate SPN 16-4
Procedure, shortened: as §1

[6] = system: Moraxella catarrhalis (BCA); assay: as above; settings: for Anti-bacterial activity (MIC), strain BCA 14-1: clinical isolate BCA 14-1; for Anti-bacterial activity (MIC), strain BCA 14-4: clinical isolate BCA 14-4; for Anti-bacterial activity (MIC), strain BCA 14-5: clinical isolate BCA 14-5; for Anti-bacterial activity (MIC), strain BCA 14-6: clinical isolate BCA 14-6; for Anti-bacterial activity (MIC), strain BCA 14-7: clinical isolate BCA 14-7; for Anti-bacterial activity (MIC), strain BCA 14-8: clinical isolate BCA 14-8; for Anti-bacterial activity (MIC), strain BCA 14-10: clinical isolate BCA 14-10
Procedure, shortened: as §1

[7] = system: Escherichia coli (including ESBLs, non-ESBLs); assay: as above; settings: for Anti-bacterial activity (MIC), strain ECO+ 15-1: clinical isolate ECO+ 15-1; for Anti-bacterial activity (MIC), strain ECO+ 15-2: clinical isolate ECO+ 15-2; for Anti-bacterial activity (MIC), strain ECO+ 15-3: clinical isolate ECO+ 15-3; for Anti-bacterial activity (MIC), strain ECO+ 15-4: clinical isolate ECO+ 15-4; for Anti-bacterial activity (MIC), strain ECO− 15-1: clinical isolate ECO− 15-1; for Anti-bacterial activity (MIC), strain ECO− 15-2: clinical isolate ECO− 15-2; for Anti-bacterial activity (MIC), strain ECO− 15-3: clinical isolate ECO− 15-3; for Anti-bacterial activity (MIC), strain ECO− 15-4: clinical isolate ECO− 15-4
Procedure, shortened: as §1

[8] = system: Enterococcus faecalis (EFA); assay: as above; settings: for Anti-bacterial activity (MIC), strain EFA 15-1: clinical isolate EFA 15-1; for Anti-bacterial activity (MIC), strain EFA 15-2: clinical isolate EFA 15-2; for Anti-bacterial activity (MIC), strain EFA 15-3: clinical isolate EFA 15-3; for Anti-bacterial activity (MIC), strain EFA 15-4: clinical isolate EFA 15-4; for Anti-bacterial activity (MIC), strain EFA 15-5: clinical isolate EFA 15-5; for Anti-bacterial activity (MIC), strain EFA 15-6: clinical isolate EFA 15-6; for Anti-bacterial activity (MIC), strain EFA 15-9: clinical isolate EFA 15-9
Procedure, shortened: as §1

[9] = system: Enterococcus faecium (EFM); assay: as above; settings: for Anti-bacterial activity (MIC), strain EFM 15-1: clinical isolate EFM 15-1; for Anti-bacterial activity (MIC), strain EFM 15-2: clinical isolate EFM 15-2; for Anti-bacterial activity (MIC), strain EFM 15-3: clinical isolate EFM 15-3; for Anti-bacterial activity (MIC), strain EFM 15-4: clinical isolate EFM 15-4; for Anti-bacterial activity (MIC), strain EFM 15-5: clinical isolate EFM 15-5; for Anti-bacterial activity (MIC), strain EFM 15-6: clinical isolate EFM 15-6
Procedure, shortened: as §1

[10] = system: methicillin-resistant Staphylococcus epidermidis (MRSE); assay: as above; settings: for Anti-bacterial activity (MIC), strain MRSE 15-1: clinical isolate MRSE 15-1; for Anti-bacterial activity (MIC), strain MRSE 15-2: clinical isolate MRSE 15-2; for Anti-bacterial activity (MIC), strain MRSE 15-3: clinical isolate MRSE 15-3; for Anti-bacterial activity (MIC), strain MRSE 15-7: clinical isolate MRSE 15-7
Procedure, shortened: as §1

CCCC[C@H](CC(=O)NO)C(=O)N1CC2(CC2)C[C@H]1C(=O)Nc1ncco1 [Example 53, (S)-5-((R)-2-(2-(hydroxyamino)-2-oxoethyl)hexanoyl)-N-(oxazol-2-yl)-5-azaspiro[2.4]heptane-6-carboxamide]
32 µg/mL: Anti-bacterial activity (MIC), strain SPN 16-2 [5] | Anti-bacterial activity (MIC), strain SPN 16-4 [5] | Anti-bacterial activity (MIC), strain EFM 15-5 [9] | Anti-bacterial activity (MIC), strain EFM 15-6 [9]
> 32 µg/mL: Anti-bacterial activity (MIC), strain MSSE 15-3 [2] | Anti-bacterial activity (MIC), strain MSSE 15-4 [2] | Anti-bacterial activity (MIC), strain MSSE 15-5 [2] | Anti-bacterial activity (MIC), strain MSSE 15-6 [2] | Anti-bacterial activity (MIC), strain MRSA 15-2 [3] | Anti-bacterial activity (MIC), strain MRSA 15-4 [3] | Anti-bacterial activity (MIC), strain MSSA 15-3 [4] | Anti-bacterial activity (MIC), strain MSSA 15-4 [4] | Anti-bacterial activity (MIC), strain MSSA 15-5 [4] | Anti-bacterial activity (MIC), strain MSSA 15-6 [4] | Anti-bacterial activity (MIC), strain BCA 14-1 [6] | Anti-bacterial activity (MIC), strain BCA 14-4 [6] | Anti-bacterial activity (MIC), strain BCA 14-5 [6] | Anti-bacterial activity (MIC), strain BCA 14-6 [6] | Anti-bacterial activity (MIC), strain BCA 14-7 [6] | Anti-bacterial activity (MIC), strain BCA 14-8 [6] | Anti-bacterial activity (MIC), strain BCA 14-10 [6] | Anti-bacterial activity (MIC), strain ECO+ 15-1 [7] | Anti-bacterial activity (MIC), strain ECO+ 15-2 [7] | Anti-bacterial activity (MIC), strain ECO+ 15-3 [7] | Anti-bacterial activity (MIC), strain ECO+ 15-4 [7] | Anti-bacterial activity (MIC), strain ECO− 15-1 [7] | Anti-bacterial activity (MIC), strain ECO− 15-2 [7] | Anti-bacterial activity (MIC), strain ECO− 15-3 [7] | Anti-bacterial activity (MIC), strain ECO− 15-4 [7] | Anti-bacterial activity (MIC), strain EFA 15-1 [8] | Anti-bacterial activity (MIC), strain EFA 15-2 [8] | Anti-bacterial activity (MIC), strain EFA 15-3 [8] | Anti-bacterial activity (MIC), strain EFA 15-4 [8] | Anti-bacterial activity (MIC), strain EFA 15-5 [8] | Anti-bacterial activity (MIC), strain EFA 15-6 [8] | Anti-bacterial activity (MIC), strain EFA 15-9 [8] | Anti-bacterial activity (MIC), strain EFM 15-1 [9] | Anti-bacterial activity (MIC), strain EFM 15-2 [9] | Anti-bacterial activity (MIC), strain EFM 15-3 [9] | Anti-bacterial activity (MIC), strain EFM 15-4 [9] | Anti-bacterial activity (MIC), strain MRSE 15-1 [10] | Anti-bacterial activity (MIC), strain MRSE 15-2 [10] | Anti-bacterial activity (MIC), strain MRSE 15-3 [10] | Anti-bacterial activity (MIC), strain MRSE 15-7 [10]
-18%: inhibition at 30 µM [1]
16 µg/mL: Anti-bacterial activity (MIC), strain MRSA 15-1 [3] | Anti-bacterial activity (MIC), strain MRSA 15-3 [3]

CCCC[C@H](CC(=O)NO)C(=O)N1CC2(CC2)C[C@H]1C(=O)Nc1ccno1 [Example 54, (S)-5-((R)-2-(2-(hydroxyamino)-2-oxoethyl)hexanoyl)-N-(isoxazol-5-yl)-5-spiro[2.4]heptane-6-carboxamide]
32 µg/mL: Anti-bacterial activity (MIC), strain BCA 14-5 [6] | Anti-bacterial activity (MIC), strain EFA 15-9 [8]
2 µg/mL: Anti-bacterial activity (MIC), strain EFM 15-5 [9]
8%: inhibition at 30 µM [1]
8 µg/mL: Anti-bacterial activity (MIC), strain EFM 15-6 [9]
4 µg/mL: Anti-bacterial activity (MIC), strain SPN 16-2 [5] | Anti-bacterial activity (MIC), strain SPN 16-4 [5]
> 32 µg/mL: Anti-bacterial activity (MIC), strain MSSE 15-3 [2] | Anti-bacterial activity (MIC), strain MSSE 15-4 [2] | Anti-bacterial activity (MIC), strain MSSE 15-5 [2] | Anti-bacterial activity (MIC), strain MSSE 15-6 [2] | Anti-bacterial activity (MIC), strain MRSA 15-1 [3] | Anti-bacterial activity (MIC), strain MRSA 15-2 [3] | Anti-bacterial activity (MIC), strain MRSA 15-3 [3] | Anti-bacterial activity (MIC), strain MRSA 15-4 [3] | Anti-bacterial activity (MIC), strain MSSA 15-3 [4] | Anti-bacterial activity (MIC), strain MSSA 15-4 [4] | Anti-bacterial activity (MIC), strain MSSA 15-5 [4] | Anti-bacterial activity (MIC), strain MSSA 15-6 [4] | Anti-bacterial activity (MIC), strain BCA 14-1 [6] | Anti-bacterial activity (MIC), strain BCA 14-4 [6] | Anti-bacterial activity (MIC), strain BCA 14-6 [6] | Anti-bacterial activity (MIC), strain BCA 14-7 [6] | Anti-bacterial activity (MIC), strain BCA 14-8 [6] | Anti-bacterial activity (MIC), strain BCA 14-10 [6] | Anti-bacterial activity (MIC), strain ECO+ 15-1 [7] | Anti-bacterial activity (MIC), strain ECO+ 15-2 [7] | Anti-bacterial activity (MIC), strain ECO+ 15-3 [7] | Anti-bacterial activity (MIC), strain ECO+ 15-4 [7] | Anti-bacterial activity (MIC), strain ECO− 15-1 [7] | Anti-bacterial activity (MIC), strain ECO− 15-2 [7] | Anti-bacterial activity (MIC), strain ECO− 15-3 [7] | Anti-bacterial activity (MIC), strain ECO− 15-4 [7] | Anti-bacterial activity (MIC), strain EFA 15-1 [8] | Anti-bacterial activity (MIC), strain EFA 15-2 [8] | Anti-bacterial activity (MIC), strain EFA 15-3 [8] | Anti-bacterial activity (MIC), strain EFA 15-4 [8] | Anti-bacterial activity (MIC), strain EFA 15-5 [8] | Anti-bacterial activity (MIC), strain EFA 15-6 [8] | Anti-bacterial activity (MIC), strain EFM 15-1 [9] | Anti-bacterial activity (MIC), strain EFM 15-2 [9] | Anti-bacterial activity (MIC), strain EFM 15-3 [9] | Anti-bacterial activity (MIC), strain EFM 15-4 [9] | Anti-bacterial activity (MIC), strain MRSE 15-1 [10] | Anti-bacterial activity (MIC), strain MRSE 15-2 [10] | Anti-bacterial activity (MIC), strain MRSE 15-3 [10] | Anti-bacterial activity (MIC), strain MRSE 15-7 [10]
